We go through seven molecules from patent US10683293B2, “Optionally fused heterocyclyl-substituted derivatives of pyrimidine useful for the treatment of inflammatory, metabolic, oncologic and autoimmune diseases” (NUEVOLUTION A/S, priority 2014, dated 2020).

Structures are written as SMILES. Some results are limits rather than exact numbers.

One experiment relates to male DBA/1J mice. As to the kind of experiment: Collagen-Induced Arthritis (CIA) Study. Type of experiment: in vivo, mouse. The note with it: 30 mg/kg, orally twice daily, therapeutic setting (from day 27 until day 41). An excerpt: Compounds disclosed herein have also been evaluated in two different mouse in vivo disease models: Experimental Autoimmune Encephalomyelitis (EAE) model (an animal model for multiple sclerosis), and Collagen-induced Arthritis (CIA) model (an animal model for rheumatoid arthritis).
Collagen-Induced Arthritis (CIA) Study
Collagen-induced arthritis is an animal model of rheumatoid arthritis used to evaluate the efficacy of test compounds. CIA was induced at Washington Biotechnology Inc. (Baltimore) in male DBA/1J mice (Jackson Laboratories) by subcutaneous injection at the base of the tail with 50 μl of a bovine collagen/complete Freund's adjuvant emulsion. After 21 days, the mice were further boosted by a further subcutaneous injection of 50 μl of a collagen/incomplete Freund's adjuvant emulsion. For treatment, compound or vehicle (2% DMSO, 10% HP-β-CD in MilliQ water) was given orally twice daily at various doses selected from 3, 10, 30 mg/kg, beginning at the day of CIA induction (Prophylactic setting), or after disease initiation (at day 27, therapeutic setting). Treatment lasted until day 41, and the animals were scored three times weekly. Each paw was scored and the sum of all four scores was recorded as the Arthritic Index (AI). […] The Arthritis Index for each treatment can be expressed as the mean score for each treatment group+/−S.E.M.

Experiment [1] addresses T1, human RORγt (Ligand Binding Domain) (Homo sapiens, UniProt P51449).
T1 construct: purchased Crelux (Planegg, Germany) batch no PC5032-1
T1 sequence (P51449 269-508 limits assumed): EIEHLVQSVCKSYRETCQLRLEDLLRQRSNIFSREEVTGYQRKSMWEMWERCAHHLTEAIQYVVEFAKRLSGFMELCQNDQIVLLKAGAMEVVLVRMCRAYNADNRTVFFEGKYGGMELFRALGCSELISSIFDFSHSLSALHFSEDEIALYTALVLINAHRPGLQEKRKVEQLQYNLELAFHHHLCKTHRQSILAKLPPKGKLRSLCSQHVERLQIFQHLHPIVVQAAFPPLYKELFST
As to the kind of experiment: Fluorescence Polarization (FP) Assay. Conditions: 100 nM human RORγt LBD, 25 nM TAMRA probe, values are activity range bounds. Put shortly:
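In vitro fluorescence polarization binding assay on the RORγt ligand-binding pocket. A TAMRA-labelled RORγt ligand probe (MW 910 g/mol) was used, with DMSO as negative control.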
(In general: In fluorescence polarisation assays a small probe gives low polarisation when free and higher when bound to something large.)

Experiment [2] deals with T2, ligand binding domain of human RORγ (Homo sapiens, UniProt P51449).
T2 construct: host or cells: HEK293t
T2 sequence (P51449 269-508 limits assumed): T1 sequence (P51449 269-508 limits assumed)
Kind of experiment: RORγ Reporter Assay (Gal4). Type of experiment: cell-based. Conditions: for inhibition at 1 µM: HEK-293T, 1 μM test compound, HEK293t RORγ reporter cells, 24 hour, read-out: Gal4 activity range @ 1 μM (% inhibition); for Gal4 activity range @ 0.1 μM (% inhibition): RORγ Reporter Assay (Gal4), HEK293t reporter cells, compound at 0.1 μM, values are activity range bounds. The method, boiled down: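 HEK293t cells expressing Gal4 DBD–human RORγ LBD hybrid with Gal4-UAS firefly luciferase reporter; compounds at final 1,000 nM and 100 nM (0.1% DMSO), triplicate, medium with 10% charcoal-stripped FBS, 24 h at 37 °C. Luminescence read; percent reduction of RORγ activity calculated versus vehicle-only wells.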
A general note: A reporter such as luciferase makes a cellular process visible.

For another experiment, the system named is female C57BL/6 mice. As to the kind of experiment: Experimental Autoimmune Encephalomyelitis (EAE) Study. Type of experiment: in vivo, mouse. The note with it: 30 mg/kg, orally twice daily, from day of EAE induction, 25 days.

In general, IC50 refers to the concentration that gives 50% inhibition. A lower IC50 goes with inhibition by little substance. The term inhibition denotes the relative decrease from the control value, in per cent. As to `CS(=O)(=O)N1CCC(CNc2ncnc(N(Cc3ccc(C(F)(F)F)cc3)C3CC3)c2F)CC1` [Example A7, N4-cyclopropyl-5-fluoro-N6-[(1-methylsulfonyl-4-piperidyl)methyl]-N4-[[4-(trifluoromethyl)phenyl]methyl] pyrimidine-4,6-diamine], in the experiment on male DBA/1J mice, the “disease severity (CIA, Arthritic Index)” value is “significantly reduce disease severity” and the “rate of disease development (CIA)” value is recorded as “decrease rate of disease development”. The half-inhibitory concentration (IC50) in experiment [1] was less than 500 nM. In experiment [2], the inhibition at 1 µM is greater than 80% and the “Gal4 activity range @ 0.1 μM (% inhibition)” value is reported as greater than 80 % inhibition. For the same molecule, in the experiment with female C57BL/6 mice, the EAE clinical score entry was “significantly lower the clinical score” and the “onset of EAE” value was “delay onset”.
On to `NC(=O)Cc1ccc(CNc2ncnc(N(Cc3cc(C(F)(F)F)ccn3)C3CC3)c2F)cc1` [Example A178, 2-[4-[[[6-[cyclopropyl-[[4-(trifluoromethyl)-2-pyridyl]methyl]amino]-5-fluoro-pyrimidin-4-yl]amino]methyl]phenyl]acetamide], for which the IC50 in experiment [1] is less than 500 nM. For the same molecule, in experiment [2], the inhibition at 1 µM was greater than 20% and the “Gal4 activity range @ 0.1 μM (% inhibition)” value is greater than 0 % inhibition.
In turn, `NC(=O)Cc1ccc(CNc2ncnc(N(Cc3ccc(C(F)F)nc3)C3CC3)c2F)cc1` [Example A179, 2-[4-[[[6-[cyclopropyl-[[6-(difluoromethyl)-3-pyridyl]methyl]amino]-5-fluoro-pyrimidin-4-yl]amino]methyl]phenyl]acetamide] returned a 50% inhibitory concentration (IC50) in experiment [1] of less than 500 nM. In addition, in experiment [2], the inhibition at 1 µM is greater than 80% and the “Gal4 activity range @ 0.1 μM (% inhibition)” value is given as greater than 20 % inhibition.
`O=C(O)C[C@@H](CCc1ccccc1)Nc1ncnc(N(Cc2ccc(C(F)(F)F)cc2)C2CC2)c1F` [Example A181, (3R)-3-[[6-[cyclopropyl-[[4-(trifluoromethyl)phenyl]methyl]amino]-5-fluoro-pyrimidin-4-yl]amino]-5-phenyl-pentanoic acid] yielded an IC50 in experiment [1] of less than 500 nM. For the same molecule, in experiment [2], the inhibition at 1 µM is greater than 80% and the “Gal4 activity range @ 0.1 μM (% inhibition)” value is recorded as greater than 0 % inhibition.
On to `NC(=O)Cc1ccc(Cn2ccc3c(N(Cc4ccc(C(F)(F)F)cc4)C4CC4)ncnc32)cc1` [Example I1, 2-(4-((4-(cyclopropyl (4-(trifluoromethyl)benzyl)amino)-7H-pyrrolo[2,3-d]pyrimidin-7-yl)methyl)phenyl)acetamide], for which the IC50 in experiment [1] was less than 500 nM. Also, in experiment [2], the inhibition at 1 µM is greater than 80% and the “Gal4 activity range @ 0.1 μM (% inhibition)” value is on record as greater than 80 % inhibition.
With `Fc1c(NCc2ccc(Cc3nnn[nH]3)cc2)ncnc1N(Cc1ccc(C(F)(F)F)cc1)C1CC1` [Example T1, N6-cyclopropyl-5-fluoro-N4-[[4-(1H-tetrazol-5-ylmethyl)phenyl]methyl]-N6-[[4-(trifluoromethyl)phenyl]methyl] pyrimidine-4,6-diamine], the IC50 in experiment [1] was less than 500 nM. For the same molecule, in experiment [2], the inhibition at 1 µM is greater than 80% and the “Gal4 activity range @ 0.1 μM (% inhibition)” value is greater than 50 % inhibition.
`O=S(=O)(CC(F)(F)F)NC1CCC(CNc2ncnc(N(Cc3ccc(C(F)(F)F)cc3)C3CC3)c2F)CC1` (stereo not shown) [x, N-[4-[[[6-[cyclopropyl-[[4-(trifluoromethyl)phenyl]methyl]amino]-5-fluoro-pyrimidin-4-yl]amino]methyl]cyclohexyl]-2,2,2-trifluoro-ethanesulfonamide] gave an IC50 in experiment [1] of less than 500 nM. In experiment [2], the inhibition at 1 µM is greater than 50% and the “Gal4 activity range @ 0.1 μM (% inhibition)” value was greater than 20 % inhibition.
